According to patent US20070287630A1, “Moisturizing agent with nutrients” (DriWater, Inc., priority 2006, published 2007):

Settings: acetic acid acting as a preservative in the gel

## CC(=O)O [acetic acid]
  effect on gel degradation in soil: slow gel degradion in soil
